In article PMC6321168, “Comparative Study on Excretive Characterization of Main Components in Herb Pair Notoginseng-Safflower and Single Herbs by LC–MS/MS” (Pharmaceutics, 2018):

Experiment: Fecal excretion study in rats after oral NS, SF or CNS (LC–MS/MS)
Type: in vivo
Settings: rat feces; for concentration at 4 h / concentration at 8 h / concentration at 12 h / concentration at 24 h / concentration at 36 h / concentration at 48 h / concentration at 72 h / concentration at 96 h / concentration at 120 h: male, Sprague Dawley
Procedure: The animal room was set at constant temperature of 20 ± 2 °C with humidity of 50 ± 20% and 12/12 h light/dark cycle.
Eighteen male rats were fasted for 12 h before starting the experiment. The rats were divided into three groups at random (n = 6) and received NS (60 mg/kg), SF (50 mg/kg), and NS (60 mg/kg) + SF (50 mg/kg), respectively, by oral gavage. The rats were placed in separate metabolic cages. The urine samples were collected at 0–2, 2–4, 4–6, 6–8, 8–12, 12–24, 24–36, 36–48, 48–72, 72–96, and 96–120 h. The feces samples were collected at 0–4, 4–8, 8–12, 12–24, 24–36, 36–48, 48–72, 72–96, and 96–120 h. The urine volume was recorded and the dry feces were measured for each collection period. Samples were stored at −80 °C until analysis.
Feces samples were homogenized in ultrapure water (1 g/15 mL), soaked for 30 min, ultrasonically extracted for 30 min and centrifuged at 9000 rpm for 8 min. An aliquot of 200 μL feces water extraction solution was mixed with 10 μL of IS and then extracted three times with water-saturated n-BuOH (150 μL). The upper organic phase was combined and evaporated to dryness using a ZLS-2 vacuum centrifugal concentrator. The residue was treated as the urine sample and a 1-μL aliquot was injected for LC–MS analysis.
Ultra fast liquid chromatography (UFLC) analysis was performed using a Shimadzu UFLC system (DGU-20A3R Degasser; LC-20AD pump; SIL-20AXR Autosampler; CTO-20AC Column Oven) (Nakagyo-Ku, Koyoto, Japan). […] Because of the different endogenous substances in the urine and feces samples, different elution gradients were used to alleviate the matrix effects for the analytes.
The mass spectrometric detection was performed on an ABSciex 4500 Qtrap mass spectrometer (ABSciex, Foster City, CA, USA) equipped with a negative electrospray ionization (ESI) interface using multiple reaction monitoring (MRM). The MS parameters were optimized under the selected ion monitoring conditions as follows: curtain gas, 35 psi; ionspray voltage, 4500 V; turbo gas temperature, 450 °C; GS1, 45 psi; GS2, 45 psi. All data were acquired and analyzed by Analyst software (Versions 1.6.2) from ABSciex.
The accumulative excretion percentage was calculated for each analyte as follows. Excretion at time (t) = [concentration of the analyte (ng/mL) at t] × total urine (or feces) volume (mL) at t. The cumulative excretion up to time t (mg) was expressed as a percent (%) cumulative excretion by dividing by the total amount of the analyte ingested (mg): % Cumulative Excretion = 100 × (Σt excretiont) total ingested.

## CC(C)=CCC[C@](C)(O[C@@H]1O[C@H](CO)[C@@H](O)[C@H](O)[C@H]1O)[C@H]1CC[C@]2(C)[C@@H]1[C@H](O)C[C@@H]1[C@@]3(C)CC[C@H](O)C(C)(C)[C@@H]3[C@@H](O[C@@H]3O[C@H](CO)[C@@H](O)[C@H](O)[C@H]3O[C@@H]3O[C@@H](C)[C@H](O)[C@@H](O)[C@H]3O)C[C@]12C [ginsenoside Re]
Oral CNS 110 mg/kg, 4 h
  concentration at 4 h: 87 ± 124 ng/mL
  Accumulative excretion amount: 1.098 ± 1.616 µg
  Accumulative excretion percentage: 0.234±0.345%
  Excretion amount: 1.098 ± 1.616 µg
Oral CNS 110 mg/kg, 8 h
  concentration at 8 h: 267 ± 204 ng/mL
  Accumulative excretion amount: 4.802 ± 4.393 µg
  Accumulative excretion percentage: 1.022±0.936%
  Excretion amount: 3.705 ± 2.813 µg
Oral CNS 110 mg/kg, 12 h
  concentration at 12 h: 330 ± 26 ng/mL
  Accumulative excretion amount: 9.675 ± 4.726 µg
  Accumulative excretion percentage: 2.051±1.001%
  Excretion amount: 4.873 ± 1.226 µg
Oral CNS 110 mg/kg, 24 h
  concentration at 24 h: 366 ± 20 ng/mL
  Accumulative excretion amount: 15.135 ± 5.426 µg
  Accumulative excretion percentage: 3.203±1.152%
  Excretion amount: 5.459 ± 1.584 µg
Oral CNS 110 mg/kg, 36 h
  concentration at 36 h: 367 ± 26 ng/mL
  Accumulative excretion amount: 20.570 ± 6.347 µg
  Accumulative excretion percentage: 4.364±1.343%
  Excretion amount: 5.435 ± 1.413 µg
Oral CNS 110 mg/kg, 48 h
  concentration at 48 h: 354 ± 28 ng/mL
  Accumulative excretion amount: 25.852 ± 7.369 µg
  Accumulative excretion percentage: 5.469±1.568%
  Excretion amount: 5.282 ± 1.513 µg
Oral CNS 110 mg/kg, 72 h
  concentration at 72 h: 168 ± 69 ng/mL
  Accumulative excretion percentage: 6.027±1.613%
  Excretion amount: 2.615 ± 1.424 µg
Oral CNS 110 mg/kg, 96 h
  concentration at 96 h: 44 ± 43 ng/mL
  Accumulative excretion amount: 29.184 ± 7.675 µg
  Accumulative excretion percentage: 6.182±1.623%
  Excretion amount: 0.717 ± 0.713 µg
Oral NS 60 mg/kg, 4 h
  concentration at 4 h: 323 ± 43 ng/mL
  Accumulative excretion amount: 4.585 ± 1.408 µg
  Accumulative excretion percentage: 0.852±0.261%
  Excretion amount: 4.585 ± 1.408 µg
Oral NS 60 mg/kg, 8 h
  concentration at 8 h: 455 ± 18 ng/mL
  Accumulative excretion amount: 11.148 ± 3.459 µg
  Accumulative excretion percentage: 2.063±0.644%
  Excretion amount: 6.563 ± 2.122 µg
Oral NS 60 mg/kg, 12 h
  concentration at 12 h: 401 ± 27 ng/mL
  Accumulative excretion amount: 16.907 ± 5.229 µg
  Accumulative excretion percentage: 3.122±0.971%
  Excretion amount: 5.759 ± 1.787 µg
Oral NS 60 mg/kg, 24 h
  concentration at 24 h: 430 ± 15 ng/mL
  Accumulative excretion amount: 23.057 ± 7.062 µg
  Accumulative excretion percentage: 4.266±1.305%
  Excretion amount: 6.150 ± 1.850 µg
Oral NS 60 mg/kg, 36 h
  concentration at 36 h: 421 ± 18 ng/mL
  Accumulative excretion amount: 29.162 ± 9.141 µg
  Accumulative excretion percentage: 5.397± 1.699%
  Excretion amount: 6.105 ± 2.098 µg
Oral NS 60 mg/kg, 48 h
  concentration at 48 h: 561 ± 26 ng/mL
  Accumulative excretion amount: 37.268 ± 11.835 µg
  Accumulative excretion percentage: 6.892±2.193%
  Excretion amount: 8.106 ± 2.700 µg
Oral NS 60 mg/kg, 72 h
  concentration at 72 h: 81 ± 6 ng/mL
  Accumulative excretion amount: 38.423 ± 12.180 µg
  Accumulative excretion percentage: 7.103±2.254%
  Excretion amount: 1.155 ± 0.306 µg
Oral NS 60 mg/kg, 96 h
  concentration at 96 h: 18 ± 1 ng/mL
  Accumulative excretion amount: 38.685 ± 12.265 µg
  Accumulative excretion percentage: 7.149±2.268%
  Excretion amount: 0.262 ± 0.086 µg
Oral NS 60 mg/kg, 120 h
  concentration at 120 h: 17 ± 2 ng/mL
  Accumulative excretion amount: 38.937 ± 12.350 µg
  Accumulative excretion percentage: 7.187±2.278%
  Excretion amount: 0.252 ± 0.091 µg
Oral CNS 110 mg/kg, 120 h
  Accumulative excretion amount: 29.184 ± 7.675 µg
  Accumulative excretion percentage: 6.182±1.623%

## CC(C)=CCC[C@](C)(O[C@@H]1O[C@H](CO)[C@@H](O)[C@H](O)[C@H]1O)[C@H]1CC[C@]2(C)[C@@H]1[C@H](O)C[C@@H]1[C@@]3(C)CC[C@H](O)C(C)(C)[C@@H]3[C@@H](O[C@@H]3O[C@H](CO)[C@@H](O)[C@H](O)[C@H]3O)C[C@]12C [ginsenoside Rg1]
Oral CNS 110 mg/kg, 4 h
  concentration at 4 h: 1100 ± 1520 ng/mL
  Accumulative excretion amount: 14.286 ± 20.907 µg
  Accumulative excretion percentage: 0.474±0.681%
  Excretion amount: 14.286 ± 20.907 µg
Oral CNS 110 mg/kg, 8 h
  concentration at 8 h: 1710 ± 54 ng/mL
  Accumulative excretion amount: 39.952 ± 21.244 µg
  Accumulative excretion percentage: 1.303±0.695%
Oral CNS 110 mg/kg, 12 h
  concentration at 12 h: 1110 ± 221 ng/mL
  Accumulative excretion amount: 56.860 ± 20.559 µg
  Excretion amount: 16.908 ± 6.636 µg
Oral CNS 110 mg/kg, 24 h
  concentration at 24 h: 980 ± 138 ng/mL
  Accumulative excretion amount: 71.363 ± 24.096 µg
  Accumulative excretion percentage: 2.331±0.796%
  Excretion amount: 14.504 ± 4.143 µg
Oral CNS 110 mg/kg, 36 h
  concentration at 36 h: 959 ± 40 ng/mL
  Accumulative excretion amount: 85.729 ± 27.211 µg
  Accumulative excretion percentage: 2.802±0.894%
  Excretion amount: 14.365 ± 4.335 µg
Oral CNS 110 mg/kg, 48 h
  concentration at 48 h: 943 ± 49 ng/mL
  Accumulative excretion amount: 99.901 ± 30.374 µg
  Accumulative excretion percentage: 3.265±0.994%
  Excretion amount: 14.173 ± 4.533 µg
Oral CNS 110 mg/kg, 72 h
  concentration at 72 h: 324 ± 249 ng/mL
  Accumulative excretion amount: 105.113 ± 30.466 µg
  Accumulative excretion percentage: 3.431±0.996%
  Excretion amount: 5.212 ± 4.367 µg
Oral CNS 110 mg/kg, 96 h
  concentration at 96 h: 24 ± 24 ng/mL
  Accumulative excretion amount: 105.509 ± 30.482 µg
  Accumulative excretion percentage: 3.441±0.996%
  Excretion amount: 0.396 ± 0.402 µg
Oral NS 60 mg/kg, 4 h
  concentration at 4 h: 1510 ± 256 ng/mL
  Accumulative excretion amount: 21.063 ± 5.410 µg
  Accumulative excretion percentage: 0.612±0.145%
  Excretion amount: 21.063 ± 5.410 µg
Oral NS 60 mg/kg, 8 h
  concentration at 8 h: 473 ± 16 ng/mL
  Accumulative excretion amount: 27.855 ± 7.375 µg
  Accumulative excretion percentage: 0.798±0.216%
  Excretion amount: 6.792 ± 2.122 µg
Oral NS 60 mg/kg, 12 h
  concentration at 12 h: 1090 ± 88 ng/mL
  Accumulative excretion percentage: 1.244±0.343%
  Excretion amount: 15.587 ± 4.879 µg
Oral NS 60 mg/kg, 24 h
  concentration at 24 h: 2040 ± 55 ng/mL
  Accumulative excretion amount: 72.682 ± 20.662 µg
  Accumulative excretion percentage: 2.071±0.592%
  Excretion amount: 29.239 ± 8.754 µg
Oral NS 60 mg/kg, 36 h
  concentration at 36 h: 2020 ± 54 ng/mL
  Accumulative excretion amount: 101.659 ± 29.524 µg
  Accumulative excretion percentage: 2.904±0.845%
  Excretion amount: 28.977 ± 8.942 µg
Oral NS 60 mg/kg, 48 h
  concentration at 48 h: 2080 ± 47 ng/mL
  Accumulative excretion amount: 131.700 ± 39.092 µg
  Accumulative excretion percentage: 3.751±1.111%
  Excretion amount: 30.041 ± 9.594 µg
Oral NS 60 mg/kg, 72 h
  concentration at 72 h: 116 ± 8 ng/mL
  Accumulative excretion amount: 133.372 ± 39.629 µg
  Accumulative excretion percentage: 3.801±1.132%
  Excretion amount: 1.673 ± 0.554 µg
Oral NS 60 mg/kg, 96 h
  concentration at 96 h: 23 ± 1 ng/mL
  Accumulative excretion percentage: 3.814±1.133%
  Excretion amount: 0.327 ± 0.104 µg
Oral NS 60 mg/kg, 120 h
  concentration at 120 h: 22 ± 2 ng/mL
  Accumulative excretion percentage: 3.824±1.132%
  Excretion amount: 0.315 ± 0.110 µg
Oral CNS 110 mg/kg, 120 h
  Accumulative excretion amount: 105.509 ± 30.482 µg
  Accumulative excretion percentage: 3.442±0.994%
